The numbers were not newly measured in patent US7618976B2, “Methods for the production of sildenafil base and citrate salt” (Teva Pharmaceutical Industries Ltd, priority 2004, dated 2009), which cites them from elsewhere.

For this data set, the system named is isolated human corpus cavernosum.

With `CCCc1nn(C)c2c(=O)[nH]c(-c3cc(S(=O)(=O)N4CCN(C)CC4)ccc3OCC)nc12` [Sildenafil], the “direct relaxant effect on isolated human corpus cavernosum” value is “no direct relaxant effect”.
